Patent US20070043084A1, “1,2-Diarylimidazoles useful as inhibitors of cox” (Astellas Pharma Inc., priority 2003, published 2007)

Experiments:
[1] = tested on: adjuvant arthritis in rats; experiment: Analgesic activity: effect on adjuvant arthritis in rats (Randall-Selitto pain threshold); format: in vivo, Lewis rats; conditions: dose 3.2 mg/kg; ratio of threshold pressure of treated vs non-treated arthritic rats, 2 hrs after administration; ratio of 1.5 = effective dose
COX-II = molecular target: T1, COX-II (Homo sapiens, UniProt P35354); experiment: Whole blood assay for COX-II (LPS-induced PGE2 production); format: cell-based; conditions: lipopolysaccharide 24 hrs at 37° C.
T1 construct: lipopolysaccharide for 24 hrs at 37° C. for induction of COX-II; from tissue; host or cells: fresh heparinized human whole blood from volunteers, stimulated with LPS for 24 hrs
T1 sequence (P35354 18-604): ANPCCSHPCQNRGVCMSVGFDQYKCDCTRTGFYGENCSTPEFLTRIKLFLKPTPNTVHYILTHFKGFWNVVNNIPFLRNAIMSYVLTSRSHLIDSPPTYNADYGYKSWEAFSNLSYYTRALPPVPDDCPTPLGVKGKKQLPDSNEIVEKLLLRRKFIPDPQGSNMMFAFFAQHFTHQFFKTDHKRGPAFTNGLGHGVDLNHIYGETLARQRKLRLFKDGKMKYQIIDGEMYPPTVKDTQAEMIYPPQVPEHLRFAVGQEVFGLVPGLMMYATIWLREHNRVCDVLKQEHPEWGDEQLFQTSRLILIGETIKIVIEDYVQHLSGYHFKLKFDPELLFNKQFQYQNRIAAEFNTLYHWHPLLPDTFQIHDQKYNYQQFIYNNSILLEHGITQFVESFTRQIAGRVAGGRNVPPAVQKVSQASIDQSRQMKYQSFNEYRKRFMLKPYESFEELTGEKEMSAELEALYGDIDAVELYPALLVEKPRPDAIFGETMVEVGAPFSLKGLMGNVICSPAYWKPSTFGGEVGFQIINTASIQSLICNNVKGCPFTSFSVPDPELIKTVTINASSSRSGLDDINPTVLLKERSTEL
Method: Whole Blood Assay for COX-II
Fresh blood was collected in heparinized tubes by syringe from volunteers with consent. The subjects had no apparent inflammatory conditions and had not taken any medication for at least 7 days prior to blood collection.
500 μl aliquots of human whole blood were incubated with either 2 μl dimethyl sulfoxide vehicle or 2 μl of a test compound at final concentrations for 15 min at 37° C. This was followed by incubation of the blood with […] of 5 mg/ml lipopolysaccharide for 24 hrs at 37° C. for induction of COX-II. Appropriate PBS treatments (no LPS) were used as blanks. At the end of the incubation, the blood was centrifuged at 6000×g for 5 min at 4° C. to obtain plasma. A 100 μl aliquot of plasma was mixed with 400 μl methanol for protein precipitation. The supernatant was obtained by centrifuging at 6000×g for 5 min at 4° C. and was assayed for prostaglandin E2 (PGE2) using a radioimmunoassay kit after conversion of PGE2 to its methyl oximate derivative according to the manufacturer's procedure.
For a test compound, the results were expressed as percent inhibition of […] production relative to control incubations containing dimethyl sulfoxide vehicle. The data were analyzed by that a test compound at the indicated concentrations was changed log value and was applied simple linear regression. IC50 value was calculated by least squares method.

COX-I = molecular target: T2, COX-I (Homo sapiens, UniProt P23219); experiment: Whole blood assay for COX-I (TXB2 production); format: cell-based; conditions: 1 hr at 37° C.
T2 construct: Fresh blood was collected by syringe without anticoagulants from volunteers with consent; from tissue; host or cells: fresh human whole blood from volunteers, no anticoagulant, left to clot
T2 sequence (P23219 24-599): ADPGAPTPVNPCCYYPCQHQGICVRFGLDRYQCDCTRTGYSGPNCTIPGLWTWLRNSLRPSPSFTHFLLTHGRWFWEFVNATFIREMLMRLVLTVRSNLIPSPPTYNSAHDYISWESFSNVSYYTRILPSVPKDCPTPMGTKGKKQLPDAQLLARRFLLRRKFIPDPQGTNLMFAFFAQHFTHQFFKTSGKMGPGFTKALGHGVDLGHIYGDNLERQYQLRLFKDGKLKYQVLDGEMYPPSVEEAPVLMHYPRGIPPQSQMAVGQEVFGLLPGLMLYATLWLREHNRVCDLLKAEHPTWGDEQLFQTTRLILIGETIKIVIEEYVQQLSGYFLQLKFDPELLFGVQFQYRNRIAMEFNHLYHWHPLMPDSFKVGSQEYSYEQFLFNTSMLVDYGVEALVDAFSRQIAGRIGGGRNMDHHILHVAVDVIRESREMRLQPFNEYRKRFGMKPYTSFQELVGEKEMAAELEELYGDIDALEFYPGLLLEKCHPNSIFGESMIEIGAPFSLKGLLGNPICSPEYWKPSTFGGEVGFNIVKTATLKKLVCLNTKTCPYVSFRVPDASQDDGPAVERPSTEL
Method: [B] Inhibiting Activity Against COX-I and COX-II (Whole Blood Assay): (i) Test Method: Whole Blood Assay for COX-I
Fresh blood was collected by syringe without anticoagulants from volunteers with consent. The subjects had no apparent inflammatory conditions and had not taken any medication for at least 7 days prior to blood collection.
500 μl aliquots of human whole blood were immediately incubated with 2 μl of either dimethyl sulfoxide vehicle or a test compound at final concentrations for 1 hr at 37° C. to allow the blood to clot. Appropriate treatments (no incubation) were used as blanks. At the end of the incubation, 5 μl of 250 mM Indomethacin was added to stop the reaction. The blood was centrifuged at 6000×g for 5 min at 4° C. to obtain serum. A 100 μl aliquot of serum was mixed with 400 μl methanol for protein precipitation. The supernatant was obtained by centrifuging at 6000×g for 5 min at 4° C. and was assayed for TXB2 using an enzyme immunoassay kit according to the manufacturer's procedure. For a test compound, the results were expressed as percent inhibition of thromboxane B2(TXB2) production relative to control incubations containing dimethyl sulfoxide vehicle.
The data were analyzed by that a test compound at the indicated concentrations was changed log value and was applied simple linear regression. IC50 value was calculated by least squares method.

Row | SMILES | melting point [°C] | The coefficient of analgesic [1] | IC50 (COX-II) [nM] | IC50 (COX-I) [nM]
1 | COc1ccc(-c2nc(C(F)(F)F)cn2-c2ccc(C#N)cc2)cc1 [Example 24, 1-(4-Cyanophenyl)-2-(4-methoxyphenyl)-4-trifluoromethyl-1H-imidazole] | 146 to 148 | >1.5 | ≥ 100 | < 10
2 | COc1ccc(-c2nc(C(F)F)cn2-c2ccc(C#N)cc2)cn1 [Example 40, 1-(4-Cyanophenyl)-4-difluoromethyl-2-(2-methoxy-5-pyridinyl)-1H-imidazole] | 160 to 161 | >1.5 | ≥ 100 | < 10
3 | COc1ccc(-c2nc(C#N)cn2-c2ccc(OC)cc2)cc1.Cl [Example 11, 4-Cyano-1-(4-methoxyphenyl)-2-(4-methoxyphenyl)-1H-imidazole hydrochloride] | 142 to 143 | >1.5 | ≥ 100 | < 10
